Experimental findings from PMC3975393, “Structure of N-Terminal Sequence Asp-Ala-Glu-Phe-Arg-His-Asp-Ser of Aβ-Peptide with Phospholipase A2 from Venom of Andaman Cobra Sub-Species Naja naja sagittifera at 2.0 Å Resolution” (International Journal of Molecular Sciences, 2014) are described below.

This assay relates to PLA2. Put plainly: X-ray co-crystal structure of the complex with PLA2 (PDB 3JQ5). The assay is classed as binding, Naja naja sagittifera. The conditions noted are these: 2.0 Å resolution, peptide at 10-fold high molar concentration, 10 mM sodium phosphate pH 6.0, 1 mM CaCl2, 3 h incubation. The protocol: The lyophilized samples of crude cobra venom of Naja naja sagittifera were obtained from Irula Snake Catchers Industrial Cooperative Society, Chennai, India. The crude venom was dissolved in 50 mM Tris-HCl, 100 mM NaCl, pH 7.0 at 100 mg/mL concentration and centrifuged at 12,000× g for 10 min to remove insoluble material. The collected supernatant was size fractionated on Sephadex G-100 column (100 × 2 cm) pre-equilibrated with 50 mM Tris-HCl, 100 mM NaCl, pH 7.0. The column was eluted with the same buffer at a flow rate of 6 mL/h. The peak corresponding to molecular weight of 14 kDa on SDS-PAGE and showing PLA2 activity was pooled for further purification. The pooled fractions were desalted and dialysed against 50 mM Tris-HCl, pH 7.0 and loaded on CM Sephadex C-50 column (Pharmacia, Uppsala, Sweden). The column was washed with the above buffer. The unbound fractions were pooled and dialysed against ammonium acetate buffer, pH 6.0. […] The N-terminal sequence of the first 15 residues was determined. […]
The crystal structure was determined with molecular replacement method using auto-AMoRe from the CCP4 software suit (Collaborative Computational Project, Number 4, 1994). […] The rotation and translation functions calculated with data in the resolution range, 12.0–3.5 Å yielded a unique solution with the first peak being very distinct. […]

Consider “Asp-Ala-Glu-Phe-Arg-His-Asp-Ser [DAEFRHDS]”, for which the “binding in the substrate binding site / hydrophobic channel of PLA2” value is given as “strongly interacted with the non-polar binding-cavity residues of PLA2”. Also, where the note is “listed as octa-peptide”, the “binding in the substrate binding site / hydrophobic channel of PLA2” value is listed as “fitted well in the substrate binding site of enzyme”.
